# Numbers after ± are expanded uncertainties.
# How the values were obtained:
# [1] = xn = mol fraction of the nth substance listed; settings: 298.15 K, 101 kPa, Liquid, Vibrating tube method
# [2] = excess molar enthalpy (molar enthalpy of mixing); xn = mol fraction of the nth substance listed; settings: 298.15 K, 101 kPa, Liquid
compound,measurement,setting,value
"BrCCCCBr [1,4-dibromobutane] + CCCC(=O)OCC",mass density,[1]; x2 = 0.1092,1704.75 ± 1.3 kg/m3
same,mass density,[1]; x2 = 0.1651,1647.4 ± 1.4 kg/m3
same,mass density,[1]; x2 = 0.2725,1539.36 ± 1.7 kg/m3
same,mass density,[1]; x2 = 0.387,1427.18 ± 1.9 kg/m3
same,mass density,[1]; x2 = 0.4481,1368.56 ± 2 kg/m3
same,mass density,[1]; x2 = 0.502,1317.46 ± 2 kg/m3
same,mass density,[1]; x2 = 0.6423,1187.58 ± 2.2 kg/m3
same,mass density,[1]; x2 = 0.6846,1149.12 ± 2.2 kg/m3
same,mass density,[1]; x2 = 0.7489,1091.51 ± 2.3 kg/m3
same,mass density,[1]; x2 = 0.8041,1042.59 ± 2.3 kg/m3
same,mass density,[1]; x2 = 0.9323,931.23 ± 2.3 kg/m3
same,excess molar enthalpy,[2]; x2 = 0.0504,0.00535 ± 0.000454 kcal/mol
same,excess molar enthalpy,[2]; x2 = 0.1096,0.00903 ± 0.000502 kcal/mol
same,excess molar enthalpy,[2]; x2 = 0.173,0.0111 ± 0.00055 kcal/mol
same,excess molar enthalpy,[2]; x2 = 0.2384,0.0112 ± 0.00055 kcal/mol
same,excess molar enthalpy,[2]; x2 = 0.2992,0.00939 ± 0.000526 kcal/mol
same,excess molar enthalpy,[2]; x2 = 0.3567,0.00607 ± 0.000478 kcal/mol
same,excess molar enthalpy,[2]; x2 = 0.4115,0.000311 ± 0.000382 kcal/mol
same,excess molar enthalpy,[2]; x2 = 0.4617,-0.00511 ± 0.000454 kcal/mol
same,excess molar enthalpy,[2]; x2 = 0.5078,-0.00975 ± 0.000526 kcal/mol
same,excess molar enthalpy,[2]; x2 = 0.5351,-0.0127 ± 0.000574 kcal/mol
same,excess molar enthalpy,[2]; x2 = 0.5479,-0.0133 ± 0.000598 kcal/mol
same,excess molar enthalpy,[2]; x2 = 0.5908,-0.0158 ± 0.000645 kcal/mol
same,excess molar enthalpy,[2]; x2 = 0.6504,-0.0171 ± 0.000669 kcal/mol
same,excess molar enthalpy,[2]; x2 = 0.7147,-0.0172 ± 0.000669 kcal/mol
same,excess molar enthalpy,[2]; x2 = 0.7818,-0.0157 ± 0.000645 kcal/mol
same,excess molar enthalpy,[2]; x2 = 0.8513,-0.0125 ± 0.000574 kcal/mol
same,excess molar enthalpy,[2]; x2 = 0.9352,-0.006 ± 0.000478 kcal/mol
"BrCCCCCBr [1,5-dibromopentane] + CCOC(=O)CC",mass density,[1]; x2 = 0.1344,1600.12 ± 2.7 kg/m3
same,mass density,[1]; x2 = 0.2009,1552.01 ± 2.8 kg/m3
same,mass density,[1]; x2 = 0.263,1506.12 ± 2.8 kg/m3
same,mass density,[1]; x2 = 0.3276,1457.5 ± 2.8 kg/m3
same,mass density,[1]; x2 = 0.3859,1412.68 ± 2.8 kg/m3
same,mass density,[1]; x2 = 0.4471,1364.74 ± 2.8 kg/m3
same,mass density,[1]; x2 = 0.5096,1314.84 ± 2.8 kg/m3
same,mass density,[1]; x2 = 0.6206,1223.48 ± 2.7 kg/m3
same,mass density,[1]; x2 = 0.6836,1170.2 ± 2.7 kg/m3
same,mass density,[1]; x2 = 0.7919,1075.76 ± 2.6 kg/m3
same,mass density,[1]; x2 = 0.8414,1031.42 ± 2.5 kg/m3
same,mass density,[1]; x2 = 0.8957,981.96 ± 2.5 kg/m3
same,excess molar enthalpy,[2]; x2 = 0.0603,0.00839 ± 0.000502 kcal/mol
same,excess molar enthalpy,[2]; x2 = 0.1247,0.0137 ± 0.000598 kcal/mol
same,excess molar enthalpy,[2]; x2 = 0.193,0.0172 ± 0.000669 kcal/mol
same,excess molar enthalpy,[2]; x2 = 0.261,0.0185 ± 0.000717 kcal/mol
same,excess molar enthalpy,[2]; x2 = 0.3249,0.0179 ± 0.000693 kcal/mol
same,excess molar enthalpy,[2]; x2 = 0.3861,0.0152 ± 0.000645 kcal/mol
same,excess molar enthalpy,[2]; x2 = 0.4412,0.0111 ± 0.00055 kcal/mol
same,excess molar enthalpy,[2]; x2 = 0.4896,0.007 ± 0.000478 kcal/mol
same,excess molar enthalpy,[2]; x2 = 0.5244,0.00378 ± 0.00043 kcal/mol
same,excess molar enthalpy,[2]; x2 = 0.5365,0.00325 ± 0.00043 kcal/mol
same,excess molar enthalpy,[2]; x2 = 0.5747,-0.000717 ± 0.000406 kcal/mol
same,excess molar enthalpy,[2]; x2 = 0.5773,-0.00105 ± 0.000406 kcal/mol
same,excess molar enthalpy,[2]; x2 = 0.6302,-0.00359 ± 0.00043 kcal/mol
same,excess molar enthalpy,[2]; x2 = 0.6884,-0.00526 ± 0.000454 kcal/mol
same,excess molar enthalpy,[2]; x2 = 0.752,-0.00629 ± 0.000478 kcal/mol
same,excess molar enthalpy,[2]; x2 = 0.8187,-0.00576 ± 0.000478 kcal/mol
same,excess molar enthalpy,[2]; x2 = 0.8848,-0.00461 ± 0.000454 kcal/mol
same,excess molar enthalpy,[2]; x2 = 0.9461,-0.00289 ± 0.00043 kcal/mol
"BrCCCCCCBr [1,6-dibromohexane] + CCOC=O",mass density,[1]; x2 = 0.1144,1557.48 ± 2.6 kg/m3
same,mass density,[1]; x2 = 0.2023,1519.96 ± 2.7 kg/m3
same,mass density,[1]; x2 = 0.2923,1477.74 ± 2.8 kg/m3
same,mass density,[1]; x2 = 0.3593,1443.52 ± 2.8 kg/m3
same,mass density,[1]; x2 = 0.5084,1357.33 ± 2.9 kg/m3
same,mass density,[1]; x2 = 0.571,1316.38 ± 2.9 kg/m3
same,mass density,[1]; x2 = 0.6288,1275.6 ± 2.9 kg/m3
same,mass density,[1]; x2 = 0.6788,1237.72 ± 2.8 kg/m3
same,mass density,[1]; x2 = 0.7728,1159.02 ± 2.8 kg/m3
same,mass density,[1]; x2 = 0.8233,1112.18 ± 2.7 kg/m3
same,mass density,[1]; x2 = 0.8545,1081.46 ± 2.7 kg/m3
same,mass density,[1]; x2 = 0.9003,1033.41 ± 2.6 kg/m3
same,excess molar enthalpy,[2]; x2 = 0.1027,0.00447 ± 0.000454 kcal/mol
same,excess molar enthalpy,[2]; x2 = 0.2124,0.127 ± 0.00335 kcal/mol
same,excess molar enthalpy,[2]; x2 = 0.3116,0.161 ± 0.00406 kcal/mol
same,excess molar enthalpy,[2]; x2 = 0.4024,0.181 ± 0.00454 kcal/mol
same,excess molar enthalpy,[2]; x2 = 0.4766,0.19 ± 0.00478 kcal/mol
same,excess molar enthalpy,[2]; x2 = 0.547,0.19 ± 0.00478 kcal/mol
same,excess molar enthalpy,[2]; x2 = 0.6032,0.183 ± 0.00478 kcal/mol
same,excess molar enthalpy,[2]; x2 = 0.6673,0.169 ± 0.0043 kcal/mol
same,excess molar enthalpy,[2]; x2 = 0.7137,0.154 ± 0.00406 kcal/mol
same,excess molar enthalpy,[2]; x2 = 0.7608,0.136 ± 0.00359 kcal/mol
same,excess molar enthalpy,[2]; x2 = 0.8062,0.112 ± 0.00287 kcal/mol
same,excess molar enthalpy,[2]; x2 = 0.852,0.0893 ± 0.00239 kcal/mol
same,excess molar enthalpy,[2]; x2 = 0.8953,0.0643 ± 0.00179 kcal/mol
same,excess molar enthalpy,[2]; x2 = 0.9357,0.0394 ± 0.0012 kcal/mol
same,excess molar enthalpy,[2]; x2 = 0.9691,0.0193 ± 0.000741 kcal/mol
"BrCCBr [1,2-dibromoethane] + CCCC(=O)OCC",mass density,[1]; x2 = 0.08,2015.53 ± 1.4 kg/m3
same,mass density,[1]; x2 = 0.1235,1937.68 ± 1.5 kg/m3
same,mass density,[1]; x2 = 0.1689,1859.7 ± 1.6 kg/m3
same,mass density,[1]; x2 = 0.2131,1787.18 ± 1.7 kg/m3
same,mass density,[1]; x2 = 0.311,1637.22 ± 1.9 kg/m3
same,mass density,[1]; x2 = 0.3652,1559.91 ± 2 kg/m3
same,mass density,[1]; x2 = 0.424,1480.28 ± 2.1 kg/m3
same,mass density,[1]; x2 = 0.4807,1407.25 ± 2.1 kg/m3
same,mass density,[1]; x2 = 0.5444,1329.31 ± 2.2 kg/m3
same,mass density,[1]; x2 = 0.6754,1181.51 ± 2.3 kg/m3
same,mass density,[1]; x2 = 0.7549,1098.99 ± 2.3 kg/m3
same,mass density,[1]; x2 = 0.8227,1032.55 ± 2.3 kg/m3
same,mass density,[1]; x2 = 0.9026,958.45 ± 2.3 kg/m3
same,excess molar enthalpy,[2]; x2 = 0.0385,0.005 ± 0.000454 kcal/mol
same,excess molar enthalpy,[2]; x2 = 0.0839,0.00753 ± 0.000478 kcal/mol
same,excess molar enthalpy,[2]; x2 = 0.1324,0.00841 ± 0.000502 kcal/mol
same,excess molar enthalpy,[2]; x2 = 0.1841,0.00779 ± 0.000502 kcal/mol
same,excess molar enthalpy,[2]; x2 = 0.2355,0.00421 ± 0.00043 kcal/mol
same,excess molar enthalpy,[2]; x2 = 0.2844,-0.0011 ± 0.000382 kcal/mol
same,excess molar enthalpy,[2]; x2 = 0.3336,-0.00743 ± 0.000478 kcal/mol
same,excess molar enthalpy,[2]; x2 = 0.3803,-0.0131 ± 0.000598 kcal/mol
same,excess molar enthalpy,[2]; x2 = 0.4245,-0.0174 ± 0.000693 kcal/mol
same,excess molar enthalpy,[2]; x2 = 0.4313,-0.0181 ± 0.000693 kcal/mol
same,excess molar enthalpy,[2]; x2 = 0.458,-0.0205 ± 0.000741 kcal/mol
same,excess molar enthalpy,[2]; x2 = 0.5024,-0.0217 ± 0.000789 kcal/mol
same,excess molar enthalpy,[2]; x2 = 0.5565,-0.023 ± 0.000813 kcal/mol
same,excess molar enthalpy,[2]; x2 = 0.6234,-0.0229 ± 0.000813 kcal/mol
same,excess molar enthalpy,[2]; x2 = 0.6941,-0.0215 ± 0.000789 kcal/mol
same,excess molar enthalpy,[2]; x2 = 0.7723,-0.0185 ± 0.000717 kcal/mol
same,excess molar enthalpy,[2]; x2 = 0.851,-0.0141 ± 0.000621 kcal/mol
same,excess molar enthalpy,[2]; x2 = 0.9264,-0.00803 ± 0.000502 kcal/mol
